{"source": "patent US9688672B2", "about": "“3-pyrimidin-4-yl-oxazolidin-2-ones as inhibitors of mutant IDH” (NOVARTIS AG, priority 2013, dated 2017)", "key": {"[1]": {"assay": "Metabolic stability in liver microsomes, Method II", "assay_type": "in vitro ADME", "description": "The in vitro metabolic stability assay was performed in a 96-deep-well plate with incubation at 37° C. 10 mM DMSO stock solution of the test compound was diluted 1:20 in acetonitrile, followed by an additional 1:10 dilution in 100 mM potassium phosphate buffer (KPi) to yield a final reaction concentration of 1 μM. […] 290 μL of cofactor solution (1.7 mM NADPH, 1.7 mM UDPGA, 3.4 mM MgCl in 100 mM KPi) was added to 200 μL of microsomal protein for a final volume of 490 μL. The reaction was initiated by adding 10 μL of the 50 μM test solution to 490 μL of microsomal protein for a final volume 500 μL enzyme-compound mixture.\nAt 0, 5, 15 and 30 minute time points in the reaction, reaction aliquots (75 μL) were removed and the reactions were terminated by the addition of 50:50 acetonitrile/methanol solution (75 μL) containing a mass spectrometry internal standard (0.5 μM glyburide). The samples were centrifuged at 4000 RPM for 10 minutes. […] The supernatants solution were analyzed by UPLC/MS/MS for quantitation of parent remaining compound under multiple reactions monitoring mode (MRM) in positive mode. […]"}, "[2]": {"assay": "Metabolic stability in liver microsomes, Method II", "assay_type": "in vitro ADME", "method": "Determination of Metabolic Stability in Liver Microsomes—Method II\nThe in vitro metabolic stability assay was performed in a 96-deep-well plate with incubation at 37° C. 10 mM DMSO stock solution of the test compound was diluted 1:20 in acetonitrile, followed by an additional 1:10 dilution in 100 mM potassium phosphate buffer (KPi) to yield a final reaction concentration of 1 μM. Immediately prior to the start of the experiment, respective animal or human liver microsomes (male Sprague-dawley rat, male CD-1 mouse, or pooled human liver microsomes) were diluted in 100 mM KPi to 1.25 mg/mL liver microsomal protein. […]\nAt 0, 5, 15 and 30 minute time points in the reaction, reaction aliquots (75 μL) were removed and the reactions were terminated by the addition of 50:50 acetonitrile/methanol solution (75 μL) containing a mass spectrometry internal standard (0.5 μM glyburide). […] The supernatants solution were analyzed by UPLC/MS/MS for quantitation of parent remaining compound under multiple reactions monitoring mode (MRM) in positive mode. […]\nThe injection volume was 5 μL. Compounds were detected using Analyst 1.5.1 software which collects intensity data for all fragments related to the molecular weight of the test compound. […]\nThe intrinsic clearance value, CLint (expressed as μL/min/mg microsomal protein) calculation is shown below: […]", "remark": "listed apart in the source"}}, "data": [{"smiles": "C[C@H](Nc1ncc(F)c(N2C(=O)OC[C@@H]2[C@H](C)F)n1)c1cn(-c2ccc(Cl)cc2F)cn1", "note": "[Example 477, (R)-3-(2-(((S)-1-(1-(4-chloro-2-fluorophenyl)-1H-imidazol-4-yl)ethyl)amino)-5-fluoropyrimidin-4-yl)-4-((S)-1-fluoroethyl)oxazolidin-2-one]", "values": [{"measurement": "Mouse microsomal stability CLint", "setting": "[1]", "result": 167.04, "unit": "µL/min/mg"}, {"measurement": "Human microsomal stability CLint", "setting": "[2]", "result": 30.44, "unit": "µL/min/mg"}]}]}
